Assay results taken from ChEMBL document CHEMBL1134756, “Synthesis and evaluation of a difluoromethylene analogue of sphingomyelin as an inhibitor of sphingomyelinase” (Bioorg Med Chem Lett, 2001).

Columns and labels:
Homo sapiens = species: Homo sapiens; assay: Inhibitory concentration against […] induced IL1-beta production in human peripheral monocytes; format: functional
[1] = test system: Sphingomyelin phosphodiesterase 1 (acid sphingomyelinase) (Bos taurus); assay: Inhibitory potency of compound against acidic (A-) SMase activity in bovine brain lysosomes microsomes(Ms) at concentration of 400 uM; conditions: Microsome
Bos taurus = species: Bos taurus; assay: Inhibitory potency of compound against ceramide synthase activity in bovine liver microsomes(Ms) at concentration of 400 uM; conditions: Microsome
[2] = Inhibitory potency of compound against neutral (N-) SMase activity in bovine liver microsomes(Ms) at concentration of 400 uM; conditions: Microsome
[3] = Inhibitory potency of compound against neutral (N-) SMase activity in bovine brain microsomes(Ms) at concentration of 400 uM; conditions: Microsome
[4] = Inhibitory potency of compound against neutral (N-) SMase activity in Bacillus cereus at concentration of 400 uM

IC50 (Homo sapiens) | inhibition [1] | inhibition (Bos taurus) | inhibition [2] | inhibition [3] | inhibition [4] | SMILES
100 nM |  |  |  |  |  | CC[C@@H](C)/C=C(\C)C[C@@H](C)C[C@@H](C)/C=C/C=C/C=C/C(=O)N[C@H](CO)C[C@@]1(O)C(=O)C=C[C@@H]2O[C@@H]21 [SCYPHOSTATIN]
 | 80% | 0% | 15% | 50% | 0% | CCCCCCCCCCCCCCCCCC(=O)N[C@H](C(O)c1ccccc1)C(O)C(F)(F)P(=O)(O)O (stereo partly specified)
